Publication PMC8348110, “A Novel Peptide Derived from the Transmembrane Domain of Romo1 Is a Promising Candidate for Sepsis Treatment and Multidrug-Resistant Bacteria” (International Journal of Molecular Sciences, 2021)
In brackets after ≈: the same amount, converted by molar mass. Residues, ends and D or L forms follow the SMILES beside them.

Assays:
[1] = system: Pseudomonas aeruginosa ATCC 27853; format: cell-based
How it was run: (§1)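 MBC = lowest peptide concentration yielding no colonies on TS agar after overnight growth at 37 °C. Before plating, cells (5 × 10^5 CFU/mL, mid-log) were incubated 1 h with peptide, 2-fold series from 64 μg/mL, in 10 mM Na phosphate pH 7.4 plus 1% TS broth.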

[2] = system: Streptococcus pneumoniae NCCP 14585; format: cell-based; details: NCCP 14585, 1 h
How it was run: as §1

[3] = system: Carbapenem-resistant K. pneumoniae, clinical isolate; format: cell-based, Klebsiella pneumoniae; details: 1 h
Description: Acinetobacter baumannii (ATCC 19606), B. subtilis (ATCC 6633), E. aerogenes (ATCC 13048), E. coli (ATCC 25922), E. faecalis (ATCC 19433), E. faecium (ATCC 19434), K. pneumoniae (ATCC 13883), P. aeruginosa (ATCC 27853), S. aureus (ATCC 29213), S. sindenensis (ATCC 23963), and MRSA (ATCC 33591) were purchased from the American Type Culture Collection (ATCC; Gaithersburg, MD, USA). Streptococcus pneumoniae (NCCP 14585), vancomycin-resistant E. faecium (NCCP 11522), and vancomycin-resistant S. aureus (NCCP 15872) were purchased from the National Culture Collection for Pathogens (NCCP; Cheongju, Korea). The isolation and use of carbapenem-resistant bacterial strains from a patient were approved (2015AN0129) by the Institutional Review Board (IRB) of Korea University Hospital. […]
The minimum bactericidal concentration (MBC) was determined as previously described with minor modifications. […] The value of MBC was determined at the lowest concentrations at which no colonies were identified.
We used the CFU counting method to measure antibacterial activity, with all bacteria cultured to the mid-log phase in an appropriate broth medium. Bacterial CFUs were counted after overnight culture at 37 °C on TS or LB agar plates. The MBC value and antibacterial activity in blood components were determined as previously described. […]

[4] = system: human embryotic kidney (HEK) 293 cells; format: cell-based
Method: Mammalian cell viability was measured using a 3-(4,5-dimethylthiazol-2-yl)-2,5-diphenyltetrazolium bromide (MTT) assay in HeLa and HEK 293 cells. Cells were cultured on 96-well plates and incubated separately with AMPR-11, AMPR-21, AMPR-22, magainin 2, or daptomycin. After incubation for an hour, the cells were incubated with MTT solution (2 mg/mL of MTT in PBS) for an hour, and the media were removed, and dimethyl sulfoxide was added to allow the MTT formazans to solubilize. The optical density was measured using a SpectraMax Plus 384 microplate reader (Molecular Devices, San Jose, CA, USA) at 550 nm.

[5] = system: BALB/c mice; assay: In vivo toxicity, single intravenous dose; parameters: species or system mouse; details: 100 mg/kg single intravenous dose, tracked for 15 days, compared with PBS-treated mice
Method: We compared the toxicity of AMPR-22 in mammalian cells with that of AMPR-11 and AMPR-21. […] To investigate the toxicity of AMPR-22 to white blood cells, we isolated fresh peripheral blood mononuclear cells (PBMCs) from humans and mice. […] To check for in vivo toxicity before administering AMPR-22 to mice in a murine model of sepsis, we intravenously injected 100 mg/kg single dose of AMPR-22 (10-fold higher than the working dose) into BALB/c mice and tracked them for 15 days.
Figure 3 The cytotoxicity of AMPR-22. (A) The cell toxicity of the AMPR-11 analog peptides was measured using the MTT assay in HeLa and HEK293 cells. Daptomycin and magainin 2 were also tested. (B) A hemolysis assay was performed in mouse and human blood. The percentage of hemolyzed erythrocytes was measured using a spectrophotometer. Peptides were serially diluted and incubated with cells for an hour. (C) The toxicity of leukocytes was measured using a flow cytometric assay with LIVE/DEAD fixable dead cell™ stain dye and freshly isolated mouse and human PBMCs. […] Data represent the means ± SD of more than three independent experiments.

Structure (SMILES): CC[C@H](C)[C@H](NC(=O)CNC(=O)CNC(=O)[C@@H](NC(=O)[C@H](C)NC(=O)[C@H](CCSC)NC(=O)[C@H](Cc1ccccc1)NC(=O)[C@@H](NC(=O)CNC(=O)[C@H](Cc1ccccc1)NC(=O)[C@H](CCCCN)NC(=O)CNC(=O)CNC(=O)[C@H](CCCCN)NC(=O)[C@H](CCCCN)NC(=O)[C@H](CCSC)NC(=O)[C@H](CCSC)NC(=O)[C@H](CCCCN)NC(=O)[C@@H](N)CCCCN)[C@@H](C)O)[C@@H](C)CC)C(=O)N[C@@H](CCCNC(=N)N)C(=O)O [AMPR-22] (H-KKMMKKGGKFGTFMAIGGIR-OH)
- MBC Value, P. aeruginosa ([1]; ATCC 27853, 1 h): 2 mg/L (≈ 0.915 µM)
- MBC Value, Pseudomonas aeruginosa ([1]; Table 2, ATCC 27853, modified MBC): 2 mg/L (≈ 0.915 µM)
- MBC Value, Streptococcus pneumoniae [2]: 4 mg/L (≈ 1.83 µM)
- MBC Value, Carbapenem-resistant K. pneumoniae [3]: 4 mg/L (≈ 1.83 µM)
- Cytotoxicity, HEK 293 cells [4]: slight cytotoxicity
- In vivo toxicity (weight loss or death) [5]: No significant changes
